The target of the assay is CBP (Homo sapiens (Human), UniProt Q92793). Kind of assay: HTRF biochemical assay for CBP activity (TR-FRET, bromodomain). The class given is binding. The settings on record: geometric mean, 10-point 3-fold dilution 33 μM to 1.7 nM, read-out: BROMO IC50 TRF TB CBP (μM gmean). As for the experimental part: Example 1: HTRF Biochemical Assay for CBP Activity
The assay was performed in a final volume of 6 μL in assay buffer containing 50 mM Hepes (pH 7.5, (0.5M Hepes, pH 7.5 solution; Teknova H1575)), 0.5 mM GSH, 0.01% BGG (0.22 p M filtered, Sigma, G7516-25G), 0.005% BSA (0.22 μM filtered, EMD Millipore Corporation, 126575) and 0.01% Triton X-100 (Sigma, T9284-10L). Nanoliter quantities of 10-point, 3-fold serial dilution in DMSO were pre-dispensed into 1536 assay plates (Corning, #3724BC) for a final test concentration of 33 μM to 1.7 nM, top to lowest dose, respectively. 3 μL of 2×Protein and 3 μL of 2×Peptide Ligand were added to assay plates (pre-stamped with compound). Plates were incubated for varying times at room temperature prior to measuring the signal. TR-FRET (Time-Resolved Fluorescence Resonance Energy Transfer) was measured on the PHERAstar (BMG, equipped with HTRF optic module [337/520/490]) or on the Envision (PerkinElmer, equipped with the TRF Laser unit, TRF dual mirror D400/D505 and emission filters M520 and M495). Data were reported as percent inhibition compared with control wells based on the following equation: % inh=1−((TR-FRET ratio−AveLow)/(AveHigh−AveLow)) where TR-FRET ratio=(Fluorescence at 520 nm/Fluorescence at 490 nm)*10000), AveLow=average TR-FRET ratio of no enzyme control (n=32), and AveHigh=average TR-FRET ratio of DMSO control (n=32). IC50 values were determined by curve fitting of the standard 4 parameter logistic fitting algorithm included in the Activity Base software package: IDBS XE Designer Model205. Data is fitted using the Levenburg Marquardt algorithm. As set forth in Table 2 below, an IC50 value of greater than or equal to 0.001 μM and less than or equal to 0.01 μM is marked “++++”; a value greater than 0.01 μM and less than or equal to 0.1 μM is marked “+++”; a value greater than 0.1 μM and less than or equal to 1 μM is marked “++”; and a value greater than 1 μM and less than 1000 μM is marked “+.” Compounds that were not tested in a particular assay are marked “NT.”

Sequence of CBP (Q92793 1085-1192): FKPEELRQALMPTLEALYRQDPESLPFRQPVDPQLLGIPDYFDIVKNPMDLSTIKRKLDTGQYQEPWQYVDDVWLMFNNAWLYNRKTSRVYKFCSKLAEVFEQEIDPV

In the case of `COC(=O)N1CCc2ccc3c(nc(C4CCCCC4)n3C[C@H](C(=O)O)c3ccccc3)c2C1` [Compound 38], the IC50 lay within 0.001 to 0.01 µM.

With `COC(=O)N1CCc2ccc3c(nc([C@H]4CC[C@](C)(C(=O)O)CC4)n3[C@@H](CO)Cc3ccccc3)c2C1` [Compound 270], the IC50 was 0.01 to 0.1 µM.

Turning to `COC(=O)N1CCc2ccc3c(nc(C4CCCCC4)n3C[C@@H](C(=O)NS(C)(=O)=O)c3ccccc3)c2C1` (single isomer, unassigned) [Compound 138], the IC50 fell in the range of 0.001 to 0.01 µM.

With `COC(=O)N1CCc2ccc3c(nc(N4CCN(S(C)(=O)=O)CC4)n3[C@@H](C)Cc3ccccc3)c2C1` [Compound 80], the IC50 was 0.001 to 0.01 µM.

As to `COC(=O)N1CCc2ccc3c(nc(C4CCCCC4)n3[C@H](C)C[C@H]3CC[C@H](C(=O)O)CC3)c2C1` [Compound 237], the IC50 is 0.01 to 0.1 µM.

Turning to `COC(=O)N1CCc2ccc3c(nc(C4CCCCC4)n3C[C@@H](CC(=O)O)c3ccccc3)c2C1` [Compound 8], the IC50 lay in the range of 0.001 to 0.01 µM.

Take `COC(=O)N1CCc2ccc3c(nc(C4CCN(C(=O)O)CC4)n3[C@H](C)Cc3ccccc3)c2C1` [Compound 134]: the IC50 fell in the range of 0.001 to 0.01 µM.

Consider `COC(=O)N1CCc2ccc3c(nc([C@H]4CCCOC4)n3C[C@@H](C(=O)O)c3ccc(C)cc3)c2C1` [Compound 58], for which the half-inhibitory concentration (IC50) is 0.001 to 0.01 µM.

For the compound `COC(=O)N1CCc2ccc3c(nc([C@H]4CC[C@@H](C(=O)O)CC4)n3CCn3cc(Cl)cn3)c2C1` [Compound 291], the IC50 is 0.1 to 1 µM.

On to `COC(=O)N1CCc2ccc3c(nc(C4CCCCC4)n3C[C@H](CC(=O)O)c3cc(F)cc(F)c3)c2C1` [Compound 37], for which the concentration for half-maximal inhibition (IC50) lay in the range of 0.001 to 0.01 µM.

For the compound `COC(=O)N1CCc2ccc3c(nc(N4CCC(C(=O)CO)CC4)n3[C@H](C)Cc3ccccc3)c2C1` [Compound 313], the half-maximal inhibitory concentration (IC50) lay within 0.1 to 1 µM.

Take `COC(=O)N1CCc2ccc3c(nc([C@@H]4CCC[C@H](C(=O)O)C4)n3[C@H](C)Cc3ccccc3)c2C1` (single isomer, unassigned) [Compound 233]: the IC50 was in the range of 0.01 to 0.1 µM.

On to `COC(=O)N1CCc2ccc3c(nc(C4CCCCC4)n3[C@H](Cc3ccccc3)C(=O)O)c2C1` [Compound 206], for which the 50% inhibitory concentration (IC50) is 0.01 to 0.1 µM.

Take `COC(=O)N1CCc2ccc3c(nc(C4CCCCC4)n3CCc3ccccc3)c2C1` [Compound 170]: the IC50 fell in the range of 0.001 to 0.01 µM.

Turning to `COC(=O)N1CCc2ccc3c(nc(N4CCCCC4)n3[C@H](C)Cc3cccc(C(=O)O)c3)c2C1` (single isomer, unassigned) [Compound 33], the IC50 was in the range of 0.001 to 0.01 µM.

`COC(=O)N1CCc2ccc3c(nc(C4CCCCC4)n3C[C@@](C)(C(=O)O)c3ccccc3)c2C1` [Compound 150]: the 50% inhibitory concentration (IC50) fell in the range of 0.001 to 0.01 µM.

Consider `COC[C@H](Cc1ccccc1)n1c2ccc3c(c2nc1[C@H]1CC[C@H](C(=O)O)CC1)CN(C(=O)OC)CC3` [Compound 299], for which the concentration for half-maximal inhibition (IC50) was 0.1 to 1 µM.

On to `COC(=O)N1CCc2ccc3c(nc(C4CCN(C(C)=O)CC4)n3[C@H](C)Cc3cccnc3)c2C1` [Compound 346], for which the IC50 fell in the range of 0.1 to 1 µM.

Turning to `COC(=O)N1CCc2c(C(=O)O)cc3c(nc(N4CCCCC4)n3C[C@H](C)c3ccccc3)c2C1` [Compound 247], the IC50 was 0.01 to 0.1 µM.

With `COC(=O)N1CCc2ccc3c(nc([C@H]4CC[C@H](C(=O)O)CC4)n3[C@H](C)C[C@@H]3CCCCO3)c2C1` [Compound 302], the IC50 was in the range of 0.1 to 1 µM.

For `COC(=O)N1CCc2ccc3c(nc([C@H]4CC[C@H](C(=O)O)CC4)n3[C@H](C)Cc3ccccc3Cl)c2C1` [Compound 297], the IC50 is 0.1 to 1 µM.

On to `COC(=O)N1CCc2ccc3c(nc(N4CCC[C@@H](C(=O)O)C4)n3C[C@H](C)c3ccccc3)c2C1` [Compound 144], for which the half-inhibitory concentration (IC50) lay in the range of 0.001 to 0.01 µM.

Turning to `COC(=O)N1CCc2ccc3c(nc([C@H]4CC[C@@H](OC)CC4)n3C[C@@H](C(=O)O)c3ccccc3)c2C1` [Compound 64], the half-maximal inhibitory concentration (IC50) was 0.001 to 0.01 µM.

Take `COC(=O)N1CCc2ccc3c(nc(-c4ccncc4)n3[C@H](C)Cc3ccccc3)c2C1` [Compound 326]: the 50% inhibitory concentration (IC50) fell in the range of 0.1 to 1 µM.

Regarding `CNC(=O)N1CCc2ccc3c(nc([C@H]4CC[C@H](C(=O)O)CC4)n3[C@@H](C)Cc3ccccc3)c2C1` [Compound 228], the half-inhibitory concentration (IC50) was in the range of 0.01 to 0.1 µM.

Regarding `COC(=O)N1CCc2ccc3c(nc([C@@H]4CCC[C@@H](C(=O)O)C4)n3C(C)Cc3ccccc3)c2C1` (stereo in doubt) [Compound 298, (1R,3R)-3-[8-(methoxycarbonyl)-3-[(2R)-1-phenylpropan-2-yl]-3H,6H,7H,8H,9H-imidazo[4,5-h]isoquinolin-2-yl]cyclohexane-1-carboxylic acid], the IC50 fell in the range of 0.1 to 1 µM.

Regarding “(2R)-3-[2-cyclohexyl-8-(methoxycarbonyl)-3H,6H,7H,8H,9H-imidazo[4,5-h]isoquinolin-3-yl]-2-(5-fluoro-2-methoxyphenyl)propanoic acid [Compound 241]”, the IC50 was in the range of 0.01 to 0.1 µM.

`COC(=O)N1CCc2ccc3c(nc(N4CCC(C(=O)O)CC4)n3[C@H](C)Cc3ccc(F)c(F)c3)c2C1` (single isomer, unassigned) [Compound 307]: the IC50 lay within 0.1 to 1 µM.

Consider `COC(=O)N1CCc2ccc3c(nc([C@@H]4CCC[C@@H](C(=O)O)C4)n3C[C@H]3CC[C@H](OC)CC3)c2C1` [Compound 262], for which the IC50 fell in the range of 0.01 to 0.1 µM.

As for `COC(=O)N1CCc2ccc3c(nc(C4CCCCC4)n3C[C@H](C(=O)O)c3cccc(F)c3F)c2C1` [Compound 104], the IC50 lay within 0.001 to 0.01 µM.

As to `COC(=O)N1CCc2ccc3c(nc(C4CCCCC4)n3[C@H](C)Cc3cccc(C(=O)O)c3)c2C1` [Compound 294], the IC50 is 0.1 to 1 µM.

On to `COC(=O)N1CCc2ccc3c(nc([C@H]4CC[C@@H](C(=O)O)C4)n3[C@H](C)Cc3ccccc3C)c2C1` [Compound 59], for which the IC50 was in the range of 0.001 to 0.01 µM.

Take `COC(=O)N1CCc2ccc3c(nc([C@H]4CC[C@@H](C(=O)O)CC4)n3CCc3ccccc3)c2C1` [Compound 336]: the IC50 was in the range of 0.1 to 1 µM.

Consider `COC(=O)N1CCc2ccc3c(nc(C4CCCCC4)n3C[C@H](C(=O)O)c3ccc(F)c(OC)c3)c2C1` [Compound 9], for which the IC50 is 0.001 to 0.01 µM.

Turning to `COC(=O)N1CCc2ccc3c(nc(C4CCCCC4)n3C[C@H]3CCCC[C@H]3C(=O)O)c2C1` [Compound 187], the IC50 fell in the range of 0.01 to 0.1 µM.

With `COC(=O)N1CCc2ccc3c(nc([C@@H]4CCC[C@@H](C(=O)O)C4)n3C(C)Cc3ccccc3)c2C1` (stereo in doubt) [Compound 99, (1R,3R)-3-[8-(methoxycarbonyl)-3-[(2S)-1-phenylpropan-2-yl]-3H,6H,7H,8H,9H-imidazo[4,5-h]isoquinolin-2-yl]cyclohexane-1-carboxylic acid], the concentration for half-maximal inhibition (IC50) was 0.001 to 0.01 µM.

In the case of `COC(=O)N1CCc2ccc3c(nc([C@H]4CCC[C@H](C(=O)O)C4)n3C(C)Cc3ccccc3Cl)c2C1` (stereo in doubt) [Compound 19, (1S,3S)-3-{3-[(2R)-1-(2-chlorophenyl)propan-2-yl]-8-(methoxycarbonyl)-3H,6H,7H,8H,9H-imidazo[4,5-h]isoquinolin-2-yl}cyclohexane-1-carboxylic acid], the half-inhibitory concentration (IC50) was in the range of 0.001 to 0.01 µM.

Regarding `COC(=O)N1CCc2ccc3c(nc(C4CCCCC4)n3[C@H](C)C[C@H]3CCCC[C@@H]3C(=O)O)c2C1` [Compound 112], the IC50 was 0.001 to 0.01 µM.

For `COC(=O)N1CCc2cc(CC(=O)O)c3c(nc(C4CCCCC4)n3CCc3ccccc3)c2C1` [Compound 158], the concentration for half-maximal inhibition (IC50) fell in the range of 0.001 to 0.01 µM.

On to `COC(=O)N1CCc2ccc3c(nc([C@H]4CC[C@H](C(=O)O)CC4)n3[C@@H](C)Cn3ncc4ccccc43)c2C1` [Compound 88], for which the IC50 is 0.001 to 0.01 µM.

For `COC(=O)N1CCc2ccc3c(nc([C@H]4CC[C@H](OC)CC4)n3C[C@H](C(=O)O)c3ccccc3)c2C1` [Compound 1], the IC50 was in the range of 0.001 to 0.01 µM.

On to `COC(=O)N1CCc2ccc3c(nc([C@H]4CC[C@H](C(=O)O)CC4)n3[C@@H](C)Cc3ccc(OC(F)F)cc3)c2C1` [Compound 69], for which the 50% inhibitory concentration (IC50) fell in the range of 0.001 to 0.01 µM.

Turning to `COC(=O)N1CCc2ccc3c(nc(C4CCCCC4)n3CCc3ccc(OC)c(C(=O)O)c3)c2C1` [Compound 242], the IC50 is 0.01 to 0.1 µM.

For the compound `COC(=O)N1CCc2ccc3c(nc([C@H]4CC[C@H](C(=O)NS(C)(=O)=O)CC4)n3[C@@H](C)Cc3ccccc3)c2C1` (single isomer, unassigned) [Compound 15], the half-maximal inhibitory concentration (IC50) lay in the range of 0.001 to 0.01 µM.

On to `COC(=O)N1CCc2ccc3c(nc(C4CCCCC4)n3C[C@H](C(=O)NS(C)(=O)=O)c3ccccc3)c2C1` (single isomer, unassigned) [Compound 22], for which the IC50 lay within 0.001 to 0.01 µM.

For the compound `COC(=O)N1CCc2ccc3c(nc(C4CCCCC4)n3CC[C@@H]3CCC[C@@H](C(=O)O)C3)c2C1` [Compound 168], the half-inhibitory concentration (IC50) lay within 0.001 to 0.01 µM.

Source of the values: patent US20250188079A1, “INHIBITING CYCLIC AMP-RESPONSIVE ELEMENT-BINDING PROTEIN (CREB)” (Forma Therapeutics, Inc., priority 2019, published 2025).
